Measured values as given in PubChem BioAssay AID1963869 (Molecular Pharmacology Branch, DTP, NCI, 2024).
Activity calls are given as the source filed them. The calls were made as follows: active = viability on the fitted dose curve at most 10% of control; inactive = the rest.

Test system: KRAS patient-derived spheroids with HUVEC/MSC, viability
Test: Anticancer human tumor 323965-272-R-J2-PDC patient-derived pancreatic carcinoma cell line growth inhibition [KRAS2]
Settings: for viability, T/C: stronger effect = lower value
Description: Multicellular complex tumor spheroid response to RAS pathway inhibitors in combination with a targeted agents in patient-derived cell lines with oncogenic KRAS variants from multiple cancer types
A high-throughput screen of multi-cell type tumor spheroids was designed to identify active combinations of targeted small molecules and KRAS pathway inhibitors. Complex spheroids include a stromal component modeled by human endothelial cells (HUVEC) and fibroblasts modeled by human mesenchymal stem cells (MSCs). The concentration ranges selected for each drug and investigational agent were based upon clinically achievable concentrations if the clinical Cmax of the agent was known.
Compounds. The drugs and investigational agents: BI-3406 (NSC825286), BAY-293 (NSC824723), batoprotafib (TNO155; NSC825523), sotorasib (AMG 510; NSC818433), MRTX1257 (NSC819558), elimusertib (BAY 1895344; NSC800525), molibresib (GSK525762; NSC774829), temuterkib (LY3214996; NSC803410), venetoclax (NSC766270), alisertib (NSC759677), olaparib (NSC753686), talazoparib (NSC767125), erdafitinib (NSC781556), ipatasertib (NSC767898), cabozantinib (NSC761068), nintedanib (NSC756659), abemaciclib (NSC768073), docetaxel (NSC628503), trametinib (NSC758246), and sapanisertib (NSC764658) were obtained from the National Cancer Institute (NCI) Developmental Therapeutics Program Chemical Repository. The FDA-approved anticancer drug set is available from the Developmental Therapeutics Program. […] The stock solutions were prepared in dimethyl sulfoxide (DMSO, Sigma-Aldrich, St. Louis, MO, cat. D2650) at 800-fold the tested concentration and stored at -70 degrees C prior to their use. All drugs and investigational agents were tested over a range starting from a high concentration at or near the clinical Cmax and decreasing in half-log increments. If the clinical Cmax for an agent had not been determined, the highest concentration tested was 10 microM.
Cell Culture. All cells were maintained in an incubator at 37 degrees C and 5% CO2 with 95% humidity. The PDC lines were cultured according to standard operating procedures established by the NCI PDMR (https://pdmr.cancer.gov/sops/default.htm). Briefly, all PDCs were thawed and cultured in Matrigel-coated flasks prepared with a working solution of 1X Ham's F-12 nutrient mix, without supplementation (Invitrogen, Waltham, MA, cat. 11765054), 100 U/mL penicillin-streptomycin (Invitrogen, cat. 15140122), and 2.5% Matrigel (Corning Inc., Corning, NY, cat. 354248) for the first three passages. All PDCs were cultured in complete DMEM/F-12 media containing advanced DMEM/F-12 (Invitrogen, cat. 12634028), 4.9% defined fetal bovine serum, heat inactivated (HyClone Laboratories Inc., Logan, UT, cat. SH30070.03HI), 389 ng/mL hydrocortisone (Sigma-Aldrich, cat. H4001), 9.7 ng/mL human EGF recombinant protein (Invitrogen, cat. PHG0313), 23.4 microg/mL adenine (Sigma-Aldrich, cat. A2786), 97.3 U/mL penicillin-streptomycin (Invitrogen, cat. 15140122), 1.9 mM L-glutamine (Invitrogen, cat. 25030081), and 9.7 microM Y-27632 dihydrochloride (Tocris Bioscience, Bristol, United Kingdom, cat. 1254). The PDCs were cultured in complete DMEM/F12 media without 9.7 microM Y-27632 dihydrochloride for at least two passages prior to the screen. The established cell line HOP-62 was cultured in RPMI 1640 medium, HEPES (Invitrogen, cat. 22400105) with 10% defined fetal bovine serum (HyClone Laboratories Inc., cat. SH30070.03) and 2 mM L-glutamine (Invitrogen, cat. 25030081). The pooled donor HUVEC were cultured in endothelial cell growth medium 2 (PromoCell, Heidelberg, Germany, cat. C-22011) and the hMSC were cultured in mesenchymal stem cell growth medium 2 (PromoCell, cat. C-28009). For all experiments, HUVEC and hMSC were used at passages </=5, while the malignant cell lines were used at passages </=15. […]

[1] = curve of first compound, second compound 0.1 µM
[2] = curve of first compound, second compound 0.316 µM
[3] = curve of first compound, second compound 1 µM
[4] = curve of first compound, second compound 3.16 µM
[5] = curve of first compound, second compound 10 µM
[6] = second compound 0.1 µM, first compound 0.0316 µM
[7] = second compound 0.1 µM, first compound 0.1 µM
[8] = second compound 0.1 µM, first compound 0.316 µM
[9] = second compound 0.1 µM, first compound 1 µM
[10] = second compound 0.1 µM, first compound 3.16 µM
[11] = second compound 0.1 µM, first compound 10 µM
[12] = second compound 0.316 µM, first compound 0.0316 µM
[13] = second compound 0.316 µM, first compound 0.1 µM
[14] = second compound 0.316 µM, first compound 0.316 µM
[15] = second compound 0.316 µM, first compound 1 µM
[16] = second compound 0.316 µM, first compound 3.16 µM
[17] = second compound 0.316 µM, first compound 10 µM
[18] = second compound 1 µM, first compound 0.0316 µM
[19] = second compound 1 µM, first compound 0.1 µM
[20] = second compound 1 µM, first compound 0.316 µM
[21] = second compound 1 µM, first compound 1 µM
[22] = second compound 1 µM, first compound 3.16 µM
[23] = second compound 1 µM, first compound 10 µM
[24] = second compound 3.16 µM, first compound 0.0316 µM
[25] = second compound 3.16 µM, first compound 0.1 µM
[26] = second compound 3.16 µM, first compound 0.316 µM
[27] = second compound 3.16 µM, first compound 1 µM
[28] = second compound 3.16 µM, first compound 3.16 µM
[29] = second compound 3.16 µM, first compound 10 µM
[30] = second compound 10 µM, first compound 0.0316 µM
[31] = second compound 10 µM, first compound 0.1 µM
[32] = second compound 10 µM, first compound 0.316 µM
[33] = second compound 10 µM, first compound 1 µM
[34] = second compound 10 µM, first compound 3.16 µM
[35] = second compound 10 µM, first compound 10 µM
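For IC50 in this document: spheroids exposed to agents for 7 days.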
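For viability, T/C in this document: spheroids exposed to agents for 7 days.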

| SMILES | IC50 [1] [nM] | IC50 [2] [nM] | IC50 [3] [nM] | IC50 [4] [nM] | IC50 [5] [nM] | viability, T/C [6] [%] | viability, T/C [7] [%] | viability, T/C [8] [%] | viability, T/C [9] [%] | viability, T/C [10] [%] | viability, T/C [11] [%] | viability, T/C [12] [%] | viability, T/C [13] [%] | viability, T/C [14] [%] | viability, T/C [15] [%] | viability, T/C [16] [%] | viability, T/C [17] [%] | viability, T/C [18] [%] | viability, T/C [19] [%] | viability, T/C [20] [%] | other results |
| --- | --- | --- | --- | --- | --- | --- | --- | --- | --- | --- | --- | --- | --- | --- | --- | --- | --- | --- | --- | --- | --- |
| COc1cc(Nc2ncc3c(n2)-c2ccc(Cl)cc2C(c2c(F)cccc2OC)=NC3)ccc1C(=O)O + C=CC(=O)N1CCN(c2nc(=O)n(-c3c(C)ccnc3C(C)C)c3nc(-c4c(O)cccc4F)c(F)cc23)C(C)C1 | < 31.6 | < 31.6 | < 31.6 | < 31.6 | < 31.6 | 53.5 | 36.2 | 26.4 | 31.7 | 43.3 | 46.3 | 54.1 | 35.3 | 28.8 | 30.1 | 39.8 | 51.6 | 53 | 34 | 24.2 | viability, T/C [21]: 33.2%; viability, T/C [22]: 47.7%; viability, T/C [23]: 51.5%; viability, T/C [24]: 46.5%; viability, T/C [25]: 27.5%; viability, T/C [26]: 22.2%; viability, T/C [27]: 34.1%; viability, T/C [28]: 34.7%; viability, T/C [29]: 38.4%; viability, T/C [30]: 27.3%; viability, T/C [31]: 18.9%; viability, T/C [32]: 20.2%; viability, T/C [33]: 23%; viability, T/C [34]: 23.7%; viability, T/C [35]: 27.1% |
| O=C(c1cc(Cc2n[nH]c(=O)c3ccccc23)ccc1F)N1CCN(C(=O)C2CC2)CC1 + CC1OCC2(CCN(c3cnc(Sc4ccnc(N)c4Cl)c(N)n3)CC2)C1N | > 10000 | > 10000 | 9440 | < 31.6 | < 31.6 | 73.2 | 73.4 | 82.2 | 80.1 | 82.3 | 53.7 | 60.9 | 67.9 | 65.8 | 67.3 | 61.3 | 40.1 | 101 | 106 | 102 | viability, T/C [21]: 101%; viability, T/C [22]: 88.5%; viability, T/C [23]: 47.8%; viability, T/C [24]: 36.6%; viability, T/C [25]: 40.9%; viability, T/C [26]: 41.4%; viability, T/C [27]: 34.8%; viability, T/C [28]: 36.8%; viability, T/C [29]: 24.9%; viability, T/C [30]: 33.1%; viability, T/C [31]: 33.1%; outcome [32]: inactive; viability, T/C [33]: 28%; viability, T/C [34]: 23.7%; viability, T/C [35]: 19% |
| CC1COCCN1c1cc(-c2ccnn2C)c2ccnc(-c3ccn[nH]3)c2n1 (centres undefined) | – | – | – | – | – | – | – | – | – | – | – | – | – | – | – | – | – | – | – | – | viability, T/C (compound 0.01 µM): 77.9% [middle of 5 runs]; viability, T/C (compound 0.0316 µM): 39.8% [middle of 5 runs]; viability, T/C (compound 0.1 µM): 25.1% [middle of 5 runs]; viability, T/C (compound 0.316 µM): 21.9% [middle of 5 runs]; viability, T/C (compound 1 µM): 20.6% [middle of 5 runs]; viability, T/C (compound 3.16 µM): 18.9% [middle of 5 runs]; IC50 (curve of compound): 23.8 nM [middle of 5 runs] |
| COc1cc(OC)cc(N(CCNC(C)C)c2ccc3ncc(-c4cnn(C)c4)nc3c2)c1 | – | – | – | – | – | – | – | – | – | – | – | – | – | – | – | – | – | – | – | – | viability, T/C (compound 0.0316 µM): 102% [middle of 5 runs]; viability, T/C (compound 0.1 µM): 101% [middle of 5 runs]; viability, T/C (compound 0.316 µM): 102% [middle of 5 runs]; viability, T/C (compound 1 µM): 103% [middle of 5 runs]; viability, T/C (compound 3.16 µM): 105% [middle of 5 runs]; viability, T/C (compound 10 µM): 87.5% [middle of 5 runs]; IC50 (curve of compound): > 10000 nM |
| CC1(C)CCC(CN2CCN(c3ccc(C(=O)NS(=O)(=O)c4ccc(NCC5CCOCC5)c([N+](=O)[O-])c4)c(Oc4cnc5[nH]ccc5c4)c3)CC2)=C(c2ccc(Cl)cc2)C1 + C=CC(=O)N1CCN(c2nc(=O)n(-c3c(C)ccnc3C(C)C)c3nc(-c4c(O)cccc4F)c(F)cc23)C(C)C1 | 1100 | 1320 | 1260 | 1210 | 81.8 | 59.2 | 59.6 | 63.3 | 52.7 | 17 | 4.37 | 64.6 | 58.1 | 56.3 | 60.4 | 18.8 | 5.39 | 61.1 | 61.9 | 60.3 | viability, T/C [21]: 59.5%; viability, T/C [22]: 12%; viability, T/C [23]: 2.97%; viability, T/C [24]: 62%; viability, T/C [25]: 62.3%; viability, T/C [26]: 57.8%; viability, T/C [27]: 56.9%; viability, T/C [28]: 15.8%; viability, T/C [29]: 5.2%; viability, T/C [30]: 61%; viability, T/C [31]: 37.6%; viability, T/C [32]: 43.4%; viability, T/C [33]: 36.3%; viability, T/C [34]: 15.8%; viability, T/C [35]: 2.88% |
